The source of these data is patent publication US8309552B2, “Immunomodulating heterocyclic compounds” (Medigene AG, priority 2003, dated 2012).

One may read the EC50 as the concentration at which the effect is half-maximal.

The first assay deals with T1, CD80-CD28 interaction (Homo sapiens, UniProt P33681).
T1 sequence (P33681 35-242 limits assumed): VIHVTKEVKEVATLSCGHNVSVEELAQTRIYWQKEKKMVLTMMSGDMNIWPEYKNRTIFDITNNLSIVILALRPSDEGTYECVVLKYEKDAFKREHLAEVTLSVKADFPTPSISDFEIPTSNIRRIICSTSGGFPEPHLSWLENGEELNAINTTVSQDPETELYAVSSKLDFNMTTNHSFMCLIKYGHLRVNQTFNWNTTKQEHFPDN
Put plainly: Homogenous Time Resolved Fluorescence (HTRF) assay, cell free. It is filed as binding. Particulars: cell free HTRF assay; concentration series 100 μM-1.7 nM; 4 hours at room temperature; read-out: Activity (EC50 in the HTRF assay). The gist of the method: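 Europium and APC labels were linked through antibodies to CD28 and CD80 fusion proteins. Compounds were tested at 100 μM-1.7 nM for 4 h at room temperature in 50 mM Tris-HCl, 150 mM NaCl pH7.8, 0.1% BSA. Emission read at 665 and 615 nm (excitation 340 nm); non-specific signal measured with C215 Fab in place of CD80; EC50 reported in bands.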
For orientation: TR-FRET usually uses a lanthanide donor and a delayed reading to cut background.
As to `O=C(NC1CCN(Cc2ccccc2)C1)c1ccc(-n2[nH]c3c(nnc4cccc(F)c43)c2=O)cc1` (stereo not shown) [Example 399], the EC50 is < 1 µM. The same measure, in the same setting: to `CC(C)(C)NC(=O)c1ccc(-n2[nH]c3c(nnc4cccc(F)c43)c2=O)cc1` [Example 400] belongs < 1 µM. Still for that read-out and setting: to `O=C(NC1CN2CCC1CC2)c1ccc(-n2[nH]c3c(nnc4cccc(F)c43)c2=O)cc1` (stereo not shown) [Example 401] belongs < 1 µM. On the same count and under the same terms, to `O=C(c1ccc(-n2[nH]c3c(nnc4cccc(F)c43)c2=O)cc1)N1CCC(N2CCCCC2)CC1` [Example 402] belongs 1 to 10 µM; to `CC1(C)CC(NC(=O)c2ccc(-n3[nH]c4c(nnc5cccc(F)c54)c3=O)cc2)CC(C)(C)N1` [Example 403], < 1 µM; to `CN(C)CC(C)(C)CNC(=O)c1ccc(-n2[nH]c3c(nnc4cccc(F)c43)c2=O)cc1` [Example 404], < 1 µM. `NC1CCC(NC(=O)c2ccc(-n3[nH]c4c(nnc5cccc(F)c54)c3=O)cc2)CC1` (stereo not shown) [Example 405]: the EC50 was < 1 µM. `Cc1ccc2nnc3c(=O)n(-c4ccc(C(=O)NCCCN(C)C)cc4)[nH]c3c2c1` [Example 406]: the EC50 is < 1 µM. As to `Cc1ccc2nnc3c(=O)n(-c4ccc(C(=O)NCCCNC5CCCCC5)cc4)[nH]c3c2c1` [Example 407], the EC50 was < 1 µM. For `Cc1ccc2nnc3c(=O)n(-c4ccc(C(=O)NC5CC(C)(C)N(C)C(C)(C)C5)cc4)[nH]c3c2c1` [Example 408], the EC50 is < 1 µM. As for `Cc1ccc2nnc3c(=O)n(-c4ccc(C(=O)NCCCCN5CCCC5)cc4)[nH]c3c2c1` [Example 409], the concentration for a half-maximal effect (EC50) is < 1 µM. For the compound `NC1CCC(NC(=O)c2ccc(-n3[nH]c4c(nnc5c(F)cccc54)c3=O)cc2)CC1` (stereo not shown) [Example 410], the EC50 was < 1 µM.

As for `CN(C)CCCNC(=O)c1ccc(-n2[nH]c3c(nnc4c(Cl)cccc43)c2=O)cc1` [Example 411], the EC50 is < 1 µM.

Take `O=C(NCCCNC1CCCCC1)c1ccc(-n2[nH]c3c(nnc4c(Cl)cccc43)c2=O)cc1` [Example 412]: the EC50 is < 1 µM. On the same count and under the same terms, to `O=C(NCCCCN1CCCC1)c1ccc(-n2[nH]c3c(nnc4c(Cl)cccc43)c2=O)cc1` [Example 413] belongs < 1 µM; to `CN(C)CCCNC(=O)c1ccc(-n2[nH]c3c(nnc4c(F)cc(F)cc43)c2=O)cc1` [Example 414], < 1 µM. Consider `O=C(NCCCNC1CCCCC1)c1ccc(-n2[nH]c3c(nnc4c(F)cc(F)cc43)c2=O)cc1` [Example 415], for which the EC50 is < 1 µM. Same read-out and setting: to `O=C(NCCCCN1CCCC1)c1ccc(-n2[nH]c3c(nnc4c(F)cc(F)cc43)c2=O)cc1` [Example 416] belongs < 1 µM; to `CNCCCNC(=O)c1ccc(-n2[nH]c3c(nnc4ccc(OC)cc43)c2=O)cc1` [Example 418], < 1 µM. On the same count and under the same terms, under `O=C(NCCCCN1CCSCC1)c1ccc(-n2[nH]c3c(nnc4c(F)cccc43)c2=O)cc1` [Example 419] stands < 1 µM; under `CN(C)CC(C)(C)CNC(=O)c1ccc(-n2[nH]c3c(nnc4c(F)cccc43)c2=O)cc1` [Example 420], < 1 µM; under `O=C(c1ccc(-n2[nH]c3c(nnc4c(F)cccc43)c2=O)cc1)N1CCC(N2CCCCC2)CC1` [Example 421], 1 to 10 µM. Turning to `O=C(NC1CCC1)c1ccc(-n2[nH]c3c(nnc4c(F)cccc43)c2=O)cc1` [Example 424], the EC50 was < 1 µM. Still for that read-out and setting: under `O=C(NC1CCCC1)c1ccc(-n2[nH]c3c(nnc4c(F)cccc43)c2=O)cc1` [Example 425] stands < 1 µM. On the same count and under the same terms, under `O=C(NCCF)c1ccc(-n2[nH]c3c(nnc4c(F)cccc43)c2=O)cc1` [Example 426] stands < 1 µM; under `CN1C(C)(C)CC(NC(=O)c2ccc(-n3[nH]c4c(nnc5ccc(F)cc54)c3=O)cc2)CC1(C)C` [Example 427], < 1 µM; under `CNCCCNC(=O)c1ccc(-n2[nH]c3c(nnc4c(F)ccc(F)c43)c2=O)cc1` [Example 428], < 1 µM.

In the case of `O=C(NCCCCN1CCCC1)c1ccc(-n2[nH]c3c(nnc4c(F)ccc(F)c43)c2=O)cc1` [Example 430], the EC50 is < 1 µM. The same measure, in the same setting: under `CN1C(C)(C)CC(NC(=O)c2ccc(-n3[nH]c4c(nnc5c(F)ccc(F)c54)c3=O)cc2)CC1(C)C` [Example 431] stands < 1 µM; under `CCN(C)CCCCNC(=O)c1ccc(-n2[nH]c3c(nnc4c(F)cccc43)c2=O)cc1` [Example 432], < 1 µM. The same measure, in the same setting: to `O=C(NCCCCN1CCOCC1)c1ccc(-n2[nH]c3c(nnc4c(F)cccc43)c2=O)cc1` [Example 434] belongs < 1 µM. Same read-out and setting: under `C=CCN(C)CCCCNC(=O)c1ccc(-n2[nH]c3c(nnc4c(F)cccc43)c2=O)cc1` [Example 435] stands < 1 µM; under `CN(CCCCNC(=O)c1ccc(-n2[nH]c3c(nnc4c(F)cccc43)c2=O)cc1)C1CCCCC1` [Example 436], < 1 µM.

Staying with this assay, now noted: cell-free HTRF, concentration series 100 μM-1.7 nM, 4 hours at room temperature; read-out: Activity (EC50 in the HTRF assay).
Turning to `O=C(NCCCCF)c1ccc(-n2[nH]c3c(nnc4c(F)cccc43)c2=O)cc1` [Example 437], the EC50 is < 1 µM. For the compound `CN(CCCNC(=O)c1ccc(-n2[nH]c3c(nnc4c(F)cccc43)c2=O)cc1)c1ccccc1` [Example 438], the concentration for a half-maximal effect (EC50) was in the range of 1 to 10 µM. On the same count and under the same terms, to `CC1CC(C)(C)C(CNC(=O)c2ccc(-n3[nH]c4c(nnc5c(F)cccc54)c3=O)cc2)C1N` (stereo not shown) [Example 439] belongs < 1 µM; to `O=C(NC1CCNCC1)c1ccc(-n2[nH]c3c(nnc4c(F)cccc43)c2=O)cc1` [Example 440], < 1 µM; to `CC(N)C(C)CNC(=O)c1ccc(-n2[nH]c3c(nnc4c(F)cccc43)c2=O)cc1` (stereo not shown) [Example 443], < 1 µM. Still for that read-out and setting: under `O=C(NCC1CCNCC1)c1ccc(-n2[nH]c3c(nnc4c(F)cccc43)c2=O)cc1` [Example 444] stands < 1 µM; under `NCCCNC(=O)c1ccc(-n2[nH]c3c(nnc4c(F)cccc43)c2=O)cc1` [Example 445], < 1 µM. As for `CN(C)CCCNC(=O)c1ccc(-n2[nH]c3c(nnc4ccc(Cl)cc43)c2=O)cc1` [Example 446], the EC50 is < 1 µM. As for `CN1C(C)(C)CC(NC(=O)c2ccc(-n3[nH]c4c(nnc5ccc(Cl)cc54)c3=O)cc2)CC1(C)C` [Example 447], the EC50 is < 1 µM. The same measure, in the same setting: under `O=C(NCCCCN1CCCC1)c1ccc(-n2[nH]c3c(nnc4ccc(Cl)cc43)c2=O)cc1` [Example 449] stands < 1 µM; under `CCNC(=O)c1ccc(-n2[nH]c3c(nnc4c(F)cccc43)c2=O)cc1` [Example 450], < 1 µM; under `O=C(NCCCN1CCCCCC1)c1ccc(-n2[nH]c3c(nnc4c(F)cccc43)c2=O)cc1` [Example 451], < 1 µM. Same read-out and setting: under `CCCN(CC)C(=O)c1ccc(-n2[nH]c3c(nnc4c(F)cccc43)c2=O)cc1` [Example 452] stands 1 to 10 µM. With `CC1CCCCN1CCCCNC(=O)c1ccc(-n2[nH]c3c(nnc4c(F)cccc43)c2=O)cc1` (stereo not shown) [Example 454], the EC50 was < 1 µM.

As for `CC(C)(C)CNC(=O)c1ccc(-n2[nH]c3c(nnc4c(F)cccc43)c2=O)cc1` [Example 455], the EC50 is < 1 µM.

As for `O=C(NC1CCN(CC2CCCCC2)CC1)c1ccc(-n2[nH]c3c(nnc4c(F)cccc43)c2=O)cc1` [Example 456], the EC50 is < 1 µM. For `O=C(NC1CCN(CCCCc2ccccc2)CC1)c1ccc(-n2[nH]c3c(nnc4c(F)cccc43)c2=O)cc1` [Example 457], the EC50 is < 1 µM. Same read-out and setting: under `C=CCN(CC=C)CCCCNC(=O)c1ccc(-n2[nH]c3c(nnc4c(F)cccc43)c2=O)cc1` [Example 459] stands < 1 µM.

As to `CC1CN(CCCCNC(=O)c2ccc(-n3[nH]c4c(nnc5c(F)cccc54)c3=O)cc2)CC(C)O1` (stereo not shown) [Example 460], the EC50 is < 1 µM. Same read-out and setting: under `CC1CN(C(=O)c2ccc(-n3[nH]c4c(nnc5c(F)cccc54)c3=O)cc2)CC(C)O1` (stereo not shown) [Example 461] stands < 1 µM; under `O=C(NCCCCN1CCCCCC1)c1ccc(-n2[nH]c3c(nnc4c(F)cccc43)c2=O)cc1` [Example 462], < 1 µM. Still for that read-out and setting: to `O=C(c1ccc(-n2[nH]c3c(nnc4c(F)cccc43)c2=O)cc1)N1CCCCCC1` [Example 463] belongs < 1 µM.

On to `CC1CCN(CCCCNC(=O)c2ccc(-n3[nH]c4c(nnc5c(F)cccc54)c3=O)cc2)CC1` [Example 464], for which the concentration for a half-maximal effect (EC50) is < 1 µM. Same read-out and setting: to `CC1CCN(C(=O)c2ccc(-n3[nH]c4c(nnc5c(F)cccc54)c3=O)cc2)CC1` [Example 465] belongs < 1 µM. Same read-out and setting: to `CC1(C)CCCC(C)(C)N1CCCCNC(=O)c1ccc(-n2[nH]c3c(nnc4c(F)cccc43)c2=O)cc1` [Example 466] belongs < 1 µM; to `O=C(NCC(F)(F)C(F)F)c1ccc(-n2[nH]c3c(nnc4c(F)cccc43)c2=O)cc1` [Example 467], < 1 µM; to `CCCN(CCCCNC(=O)c1ccc(-n2[nH]c3c(nnc4c(F)cccc43)c2=O)cc1)CC1CC1` [Example 468], < 1 µM. Same read-out and setting: to `C=CCN(CCCCNC(=O)c1ccc(-n2[nH]c3c(nnc4c(F)cccc43)c2=O)cc1)C1CCCC1` [Example 469] belongs < 1 µM. `O=C(NCCCCN1CCC(C(F)(F)F)CC1)c1ccc(-n2[nH]c3c(nnc4c(F)cccc43)c2=O)cc1` [Example 470]: the EC50 is < 1 µM.

Take `O=C(NC1CCN(CCCCF)CC1)c1ccc(-n2[nH]c3c(nnc4c(F)cccc43)c2=O)cc1` [Example 471]: the 50% effective concentration (EC50) is < 1 µM.

In the case of `C=CCN(CC=C)C(=O)c1ccc(-n2[nH]c3c(nnc4c(F)cccc43)c2=O)cc1` [Example 474], the concentration giving a half-maximal response (EC50) was in the range of 1 to 10 µM.
